Data taken from patent US12319689B2, “Methyl- and trifluoromethyl-containing disubstituted sulfonamide selective BCL-2 inhibitor” (CHIA TAI TIANQING PHARMACEUTICAL GROUP CO., LTD., priority 2019, dated 2025).

Experiments:
[1] = system: RS4;11 human acute lymphoblastic leukemia subcutaneous xenograft tumors; test: RS4;11 human acute lymphoblastic leukemia mouse subcutaneous tumor xenograft model; format: in vivo, NOD/SCID mice; conditions: 25 mg/kg single intragastric dose; Day 12 after the end of administration
Description: SPF female NOD/SCID mice (Shanghai Lingchang Biotech Co., Ltd.) were inoculated subcutaneously at the right side armpit with 1×10^7 RS4;11 cells (ATCC). When the mean tumor volume reached about 180 mm^3, the mice were divided into 3 groups according to the tumor size: vehicle, compound 1-1 (25 mg/kg) and compound 3-1 (25 mg/kg). The day of grouping was determined as d0. On d1, a single intragastric dose at a volume of 10 mL/kg was administered, and the animals were observed.
The calculation formula for tumor volume: Tumor volume (mm^3)=½×(a×b^2) (where a represents long diameter and b represents short diameter).
Relative tumor proliferation rate (T/C %) refers to the percentage of the relative tumor volume or tumor weight of the treatment and control groups at a certain time point. The calculation formula is as follows: T/C %=TRTV/CRTV×100% (TRTV: mean relative tumor volume (RTV) for treatment group; CRTV: mean RTV for vehicle control group; RTV=TVt/TV0, where TV0 is the tumor volume at grouping, TVt is the tumor volume after treatment).
Tumor growth inhibition rate (TGI %) is calculated according to the following formula: TGI %=(1−T/C)×100%. (T and C are the relative tumor volume (RTV) or tumor weight (TW) at a particular time point for the treatment and control groups, respectively).
The calculation formula for weight change rate (WCR) (%) is: WCR=(Wtt−Wt0)/Wt0×100%, where Wt0 is the body weight of the animal at grouping (i.e., d0), Wtt is the body weight of the animal at each measurement.
All experimental results are expressed as mean±SD (mean±standard deviation). The relative tumor volume of the treatment group was compared with that of the control group for any significant difference by T tests, wherein p<0.05 indicates a significant difference, and p<0.01 indicates a very significant difference.

RS4;11 cells = test: Inhibition of proliferation of RS4;11 human acute lymphocytic leukemia cells (CCK-8); format: cell-based; conditions: 72 h compound exposure, CCK-8, 5% serum
Description: RS4;11 cells (from ATCC) in logarithmic growth phase and good cell condition were added to a centrifuge tube and centrifuged at 1500 rpm for 3 min in a low speed centrifuge. The supernatant was discarded, and 5 mL of complete medium (RPMI basic medium+10% FBS) was added using a pipette for cell resuspension. The cells were counted using a cell counter, diluted with complete medium to a cell density of 2×10^5 cells/mL, and an equivalent amount of RPMI basic medium was added to adjust the serum concentration to 5% and the cell density to 1×10^5 cells/mL for plate seeding. The cells were seeded on a 96-well plate at 100 μL/well using a pipettor, and incubated in an incubator at 37° C., 5% CO2 with saturated humidity. After 24 h of incubation, compounds were loaded using a nanoliter pipettor, 2 duplicate wells were set for each concentration, and cells without compound were used as negative controls. […] Inhibition rate (%)=(mean value of negative control group−mean value of experimental group)/(mean value of negative control group−mean value of blank group)×100%. A dose-response curve was fitted by four-parameter analysis, with the logarithm of compound concentration serving as abscissa and inhibition rate serving as ordinate, so that IC50 was calculated (Table 1).

BCL-2/BAK = biological target: T1, BCL-2/BAK (Homo sapiens, UniProt P10415); test: Inhibitory activity for BCL-2/BAK binding (Cisbio BCL-2/BAK (BH3) binding assay kit)
T1 construct: purchased Cisbio 63ADK000CB01PEG
Description: 500 nM Tag1-BCL-2 protein stock solution and 20 μM Tag2-BAK protein stock solution were diluted to 5 nM and 120 nM respectively with dilution buffer in kit (name: BCL-2/BAK (BH3) BINDING ASSAY KITS, cat. No.: 63ADK000CB01PEG, from Cisbio). 5 μL of Tag1-BCL-2 protein diluent was added to each well, then test compounds dissolved with DMSO were added to the wells with a nanoliter pipettor, allowing the final compound concentrations to be 200 nM to 0.0488 nM (4-fold gradient for 7 concentrations in total). Blank control wells (without enzyme) and negative control wells (with enzyme, plus vehicle DMSO) were set, and 2 replicate wells were set. Finally, 5 μL of Tag2-BAK protein diluent was added to each well, and the mixture was mixed well by centrifugation and incubated at 25° C. for 15 min. 100× anti-Tag1-Eu^3+ and 100× anti-Tag2-XL665 were both diluted to 1× working concentration with the detection buffer in the kit. Anti-Tag1-Eu^3+ and anti-Tag2-XL665 were mixed well in a 1:1 ratio, and the mixture was added to wells at 5 μL/well, and incubated at 25° C. for 2 h or more. The plate was read using a PE Envision multi-functional microplate reader ([…], emission: 665 nm) and IC50 (shown in Table 2) was calculated by four-parameter fitting.

BCL-XL/BAK = biological target: T2, BCL-XL/BAK (Homo sapiens, UniProt Q07817); test: Inhibitory activity for BCL-XL/BAK binding (Cisbio BCL-XL/BAK (BH3) binding assay kit)
T2 construct: purchased Cisbio 63ADK000CB04PEG
Description: 300 nM Tag1-BCL-XL protein stock solution and 10 μM Tag2-BAK protein stock solution were diluted to 2 nM and 80 nM respectively with dilution buffer in kit (name: BCL-XL/BAK (BH3) BINDING ASSAY KITS, cat. No.: 63ADK000CB04PEG, from Cisbio). 5 μL of Tag1-BCL-XL protein diluent was added to each well, then different test compounds dissolved with DMSO were added to the wells with a nanoliter pipettor, allowing the final compound concentrations to be 2000 nM to 0.488 nM (4-fold gradient for 7 concentrations in total). Blank control wells (without enzyme) and negative control wells (with enzyme, plus vehicle DMSO) were set, and 2 replicate wells were set. Finally, 5 μL of Tag2-BAK protein diluent was added to each well, and the mixture was mixed well by centrifugation and incubated at 25° C. for 15 min. 100× anti-Tag1-Eu^3+ and 100× anti-Tag2-XL665 were both diluted to 1× working concentration with the detection buffer in the kit. Anti-Tag1-Eu^3+ and anti-Tag2-XL665 were mixed well in a 1:1 ratio, and the mixture was added to wells at 5 μL/well, and incubated at 25° C. for 2 h or more. The plate was read using a PE Envision multi-functional microplate reader ([…], emission: 665 nm) and IC50 (shown in Table 2) was calculated by four-parameter fitting.

T1 sequence (P10415 whole entry): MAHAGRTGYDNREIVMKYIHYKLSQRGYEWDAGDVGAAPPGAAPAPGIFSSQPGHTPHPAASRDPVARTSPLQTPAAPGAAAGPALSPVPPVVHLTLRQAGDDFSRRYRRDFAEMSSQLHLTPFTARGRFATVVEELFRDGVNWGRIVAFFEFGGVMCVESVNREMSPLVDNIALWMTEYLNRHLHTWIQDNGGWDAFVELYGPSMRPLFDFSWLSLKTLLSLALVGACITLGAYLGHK
T2 sequence (Q07817 whole entry): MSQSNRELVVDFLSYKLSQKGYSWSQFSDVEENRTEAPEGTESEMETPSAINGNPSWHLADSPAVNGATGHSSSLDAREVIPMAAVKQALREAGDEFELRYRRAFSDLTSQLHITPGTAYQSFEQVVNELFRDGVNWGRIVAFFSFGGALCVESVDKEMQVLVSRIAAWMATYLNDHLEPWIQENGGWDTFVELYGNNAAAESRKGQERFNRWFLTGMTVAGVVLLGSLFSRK

Row | SMILES | IC50 (RS4;11 cells) | IC50 (BCL-2/BAK) | further results
1 | Cc1cc(C(F)(F)F)ccc1C1=C(CN2CCN(c3ccc(C(=O)NS(=O)(=O)c4ccc(NCC5CCOCC5)c([N+](=O)[O-])c4)c(Oc4cnc5[nH]ccc5c4)c3)CC2)CCC(C)(C)C1 [Compound 1-1, 4-(4-{[2-(2-methyl-4-trifluoromethylphenyl)-4,4-dimethylcyclohex-1-enyl]methyl}-piperazin-1-yl)-N-({3-nitro-4-[(tetrahydro-2H-pyran-4-ylmethyl)amino]phenyl}sulfonyl)-2-(1H-pyrrolo[2,3-b]pyridin-5-yloxy)-benzamide] | 3.9 nM |  | Relative tumor volume (mean ± SD) [1]: 2.1 ± 0.6; T/C [1]: 40.4%; TGI [1]: 59.6%; Tumor volume (mean ± SD) [1]: 350 ± 80 mm^3; Weight change rate (mean ± SD) [1]: 8.20 ± 3.58%
2 | COCC(=O)N1CCO[C@@H](CNc2ccc(S(=O)(=O)NC(=O)c3ccc(N4CCN(CC5=C(c6ccc(C(F)(F)F)cc6C)CC(C)(C)CC5)CC4)cc3Oc3cnc4[nH]ccc4c3)cc2[N+](=O)[O-])C1 [Compound 4-1] | 5.4 nM | 0.7 nM | 
3 | CC(=O)N1CCO[C@@H](CNc2ccc(S(=O)(=O)NC(=O)c3ccc(N4CCN(CC5=C(c6ccc(C(F)(F)F)cc6C)CC(C)(C)CC5)CC4)cc3Oc3cnc4[nH]ccc4c3)cc2[N+](=O)[O-])C1 [Compound 18-1, (S)-4-(4-{[2-(2-methyl-4-trifluoromethylphenyl)-4,4-dimethylcyclohex-1-enyl]methyl}-piperazin-1-yl)-N-({3-nitro-4-[((4-acetylmorpholin-2-yl)methyl)amino]phenyl}sulfonyl)-2-(1H-pyrrolo[2,3-b]pyridin-5-yloxy)-benzamide] | 5.5 nM | 1.54 nM | 
4 | CC(=O)N1CCO[C@H](CNc2ccc(S(=O)(=O)NC(=O)c3ccc(N4CCN(CC5=C(c6ccc(C(F)(F)F)cc6C)CC(C)(C)CC5)CC4)cc3Oc3cnc4[nH]ccc4c3)cc2[N+](=O)[O-])C1 [Compound 19-1, (R)-4-(4-{[2-(2-methyl-4-trifluoromethylphenyl)-4,4-dimethylcyclohex-1-enyl]methyl}-piperazin-1-yl)-N-({3-nitro-4-[((4-acetylmorpholin-2-yl)methyl)amino]phenyl}sulfonyl)-2-(1H-pyrrolo[2,3-b]pyridin-5-yloxy)-benzamide] | 3.4 nM | 0.97 nM | 
5 | Cc1cc(C(F)(F)F)ccc1C1=C(CN2CCN(c3ccc(C(=O)NS(=O)(=O)c4ccc(NC[C@H]5CN(C(=O)C(C)C)CCO5)c([N+](=O)[O-])c4)c(Oc4cnc5[nH]ccc5c4)c3)CC2)CCC(C)(C)C1 [Compound 20-1, (S)-4-(4-{[2-(2-methyl-4-trifluoromethylphenyl)-4,4-dimethylcyclohex-1-enyl]methyl}-piperazin-1-yl)-N-({3-nitro-4-[((4-isobutyrylmorpholin-2-yl)methyl)amino]phenyl}sulfonyl)-2-(1H-pyrrolo[2,3-b]pyridin-5-yloxy)-benzamide] |  | 2.06 nM | 
6 | Cc1cc(C(F)(F)F)ccc1C1=C(CN2CCN(c3ccc(C(=O)NS(=O)(=O)c4ccc(NC[C@@H]5CN(S(C)(=O)=O)CCO5)c([N+](=O)[O-])c4)c(Oc4cnc5[nH]ccc5c4)c3)CC2)CCC(C)(C)C1 [Compound 23-1, (R)-4-(4-{[2-(2-methyl-4-trifluoromethylphenyl)-4,4-dimethylcyclohex-1-enyl]methyl}-piperazin-1-yl)-N-({3-nitro-4-[((4-(methylsulfonyl)morpholin-2-yl)methyl)amino]phenyl}sulfonyl)-2-(1H-pyrrolo[2,3-b]pyridin-5-yloxy)-benzamide] | 2.5 nM | 1.1 nM | 

More lines, main results first:

Row | IC50 (RS4;11 cells) | IC50 (BCL-2/BAK) | SMILES | further results
7 | 4.2 nM |  | Cc1cc(C(F)(F)F)ccc1C1=C(CN2CCN(c3ccc(C(=O)NS(=O)(=O)c4ccc(NC[C@@H]5COCCO5)c([N+](=O)[O-])c4)c(Oc4cnc5[nH]ccc5c4)c3)CC2)CCC(C)(C)C1 [Compound 2-1] | 
8 | 1.9 nM | 1.49 nM | Cc1cc(C(F)(F)F)ccc1C1=C(CN2CCN(c3ccc(C(=O)NS(=O)(=O)c4ccc(NC[C@H]5COCCO5)c([N+](=O)[O-])c4)c(Oc4cnc5[nH]ccc5c4)c3)CC2)CCC(C)(C)C1 [Compound 3-1] | Relative tumor volume (mean ± SD) [1]: 1.3 ± 0.8; T/C [1]: 25.0%; TGI [1]: 75.0%; Tumor volume (mean ± SD) [1]: 213 ± 93 mm^3; Weight change rate (mean ± SD) [1]: 5.61 ± 3.61%
9 |  | 1.26 nM | Cc1cc(C(F)(F)F)ccc1C1=C(CN2CCN(c3ccc(C(=O)NS(=O)(=O)c4ccc(NC[C@H]5CCOC5)c([N+](=O)[O-])c4)c(Oc4cnc5[nH]ccc5c4)c3)CC2)CCC(C)(C)C1 [Compound 9-1, (R)-4-(4-{[2-(2-methyl-4-trifluoromethylphenyl)-4,4-dimethylcyclohex-1-enyl]methyl}-piperazin-1-yl)-N-({3-nitro-4-[((tetrahydrofuran-3-yl)methyl)amino]phenyl}sulfonyl)-2-(1H-pyrrolo[2,3-b]pyridin-5-yloxy)-benzamide] | IC50 (BCL-XL/BAK): 219 nM
10 |  | 1.1 nM | Cc1cc(C(F)(F)F)ccc1C1=C(CN2CCN(c3ccc(C(=O)NS(=O)(=O)c4ccc(NC[C@@H]5CCOC5)c([N+](=O)[O-])c4)c(Oc4cnc5[nH]ccc5c4)c3)CC2)CCC(C)(C)C1 [Compound 10-1, (S)-4-(4-{[2-(2-methyl-4-trifluoromethylphenyl)-4,4-dimethylcyclohex-1-enyl]methyl}-piperazin-1-yl)-N-({3-nitro-4-[((tetrahydrofuran-3-yl)methyl)amino]phenyl}sulfonyl)-2-(1H-pyrrolo[2,3-b]pyridin-5-yloxy)-benzamide] | IC50 (BCL-XL/BAK): 102 nM
11 |  | 1.79 nM | Cc1cc(C(F)(F)F)ccc1C1=C(CN2CCN(c3ccc(C(=O)NS(=O)(=O)c4ccc(NC[C@@H]5CCCO5)c([N+](=O)[O-])c4)c(Oc4cnc5[nH]ccc5c4)c3)CC2)CCC(C)(C)C1 [Compound 11-1, (S)-4-(4-{[2-(2-methyl-4-trifluoromethylphenyl)-4,4-dimethylcyclohex-1-enyl]methyl}-piperazin-1-yl)-N-({3-nitro-4-[((tetrahydrofuran-2-yl)methyl)amino]phenyl}sulfonyl)-2-(1H-pyrrolo[2,3-b]pyridin-5-yloxy)-benzamide] | 
